These results are taken from PMC5498157 (Chemical research in toxicology, 2017).

The Ki is the equilibrium dissociation constant of an inhibitor or competing ligand from its target. Low values mean a stronger hold on the target, high ones a looser hold on the target. One may read the Km as the concentration of substrate that gives half-maximal velocity. As a reminder, the kcat is the maximal rate divided by the concentration of active sites.

Assay [1] concerns the target T1, AlkB (Escherichia coli, UniProt P05050). The experiment in a line: Inhibition constant. Format: biochemical.
The target in assay [2] is T2, ALKBH3 (Homo sapiens, UniProt Q96Q83).
T2 sequence (Q96Q83 1-286): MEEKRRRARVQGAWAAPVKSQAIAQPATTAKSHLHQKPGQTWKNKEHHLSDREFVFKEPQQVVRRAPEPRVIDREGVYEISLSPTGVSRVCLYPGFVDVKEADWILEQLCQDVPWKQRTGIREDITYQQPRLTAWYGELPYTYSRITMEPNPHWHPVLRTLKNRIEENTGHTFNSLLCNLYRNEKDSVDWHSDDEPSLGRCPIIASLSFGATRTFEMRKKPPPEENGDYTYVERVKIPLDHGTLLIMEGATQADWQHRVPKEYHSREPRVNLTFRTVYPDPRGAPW
The experiment in a line: Inhibition constant. Format: biochemical. Particulars: versus αKG, 37 °C.

The target in assay [3] is T3, ALKBH2 (Homo sapiens, UniProt Q6NS38).
T3 sequence (Q6NS38 1-261): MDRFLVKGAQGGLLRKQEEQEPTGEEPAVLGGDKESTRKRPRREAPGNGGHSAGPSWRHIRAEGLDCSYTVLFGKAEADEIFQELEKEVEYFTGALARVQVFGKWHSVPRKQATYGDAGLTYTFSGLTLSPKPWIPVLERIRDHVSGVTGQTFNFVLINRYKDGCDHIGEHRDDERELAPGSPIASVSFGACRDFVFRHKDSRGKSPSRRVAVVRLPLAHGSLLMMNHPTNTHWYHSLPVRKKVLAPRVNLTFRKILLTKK
Kind of assay: Inhibition of ALKBH2 repair at tumor-relevant 2HG:αKG ratios. It is filed as biochemical. The settings on record: L-2HG:αKG = 28:1, αKG 100 µM; range over all substrates.

The target of assay [4] is T2, ALKBH3. Kind of assay: Inhibition of ALKBH3 repair at tumor-relevant 2HG:αKG ratios. It is filed as biochemical. Particulars: L-2HG:αKG = 28:1, αKG 100 µM; range over all substrates.
The subject of another assay is ALKBH2 and ALKBH3. It is filed as biochemical, human. Particulars: L-2HG:αKG = 28:1, αKG 100 µM; range over both enzymes and all substrates.
The target in assay [5] is T3, ALKBH2. The experiment in a line: Inhibition constant. It is filed as biochemical. The settings on record: for Ki: versus αKG, 37 °C.
The target in assay [6] is T2, ALKBH3. The settings on record: 37 °C.
Assay [7] addresses T3, ALKBH2. Particulars: 37 °C.
For assay [8], the target named is T1, AlkB. The settings on record: 37 °C.
Where [9] appears, read: AlkB, ds-m1A, versus αKG, 37 °C.
[10] abbreviates: AlkB, ds-m3C, versus αKG, 37 °C.
[11] abbreviates: AlkB, ss-m1A, versus αKG, 37 °C.
Setting [12] is: AlkB, ss-m3C, versus αKG, 37 °C.

SMILES strings stand for the structures. Like-named read-outs stand apart in the source and are kept apart here.

T1 sequence (P05050 whole entry): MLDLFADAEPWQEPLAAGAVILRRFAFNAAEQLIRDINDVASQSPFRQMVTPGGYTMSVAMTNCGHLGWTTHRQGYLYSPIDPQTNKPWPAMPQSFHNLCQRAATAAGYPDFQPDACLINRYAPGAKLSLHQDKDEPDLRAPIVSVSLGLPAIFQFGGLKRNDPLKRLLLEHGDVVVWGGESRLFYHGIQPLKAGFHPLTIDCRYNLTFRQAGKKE

Turning to `O=C(O)CC[C@@H](O)C(=O)O` [D-2HG, D-2-hydroxyglutarate], the Ki was 529 ± 126 µM on AlkB [1] (setting [9]); 230 ± 55 µM on AlkB [1] (setting [10]); 571 ± 166 µM at AlkB [1] (setting [11]); 447 ± 113 µM on AlkB [1] (setting [12]); 545 ± 77 µM on ALKBH3 [2] (ALKBH3, ss-m1A); 490 ± 46 µM at ALKBH3 [2] (ALKBH3, ss-m3C).

As for `O=C(O)CC[C@H](O)C(=O)O` [L-2HG, L-2-hydroxyglutarate], the inhibitory constant (Ki) on AlkB [1] (setting [9]) is 598 ± 173 µM; on AlkB [1] (setting [10]), 308 ± 108 µM; at AlkB [1] (setting [11]) it was 337 ± 99 µM; on AlkB [1] (setting [12]), 276 ± 111 µM; at ALKBH3 [2] (ALKBH3, ss-m1A), 185 ± 23 µM; at ALKBH3 [2] (ALKBH3, ss-m3C), 228 ± 16 µM. Moreover, at ALKBH2 [3], the “inhibition of ALKBH2 activity” value is 48–58%. Further, at ALKBH3 [4], the “inhibition of ALKBH3 activity” value was 31–40%. Moreover, the “inhibition of ALKBH2 and ALKBH3 repair activities” value in the assay with ALKBH2 and ALKBH3 was 31–58%.

For `O=C(O)CNC(=O)C(=O)O` [N-OG, N-oxalylglycine, reference compound], the Ki on AlkB [1] stood at 2 ± 1.3 µM; on AlkB [1] (Ki, AlkB, ds-m3C, versus αKG, 37 °C), 0.2 µM; on AlkB [1] (Ki, AlkB, ss-m1A, versus αKG, 37 °C), 0.4 ± 0.1 µM; at AlkB [1] (Ki, AlkB, ss-m3C, versus αKG, 37 °C) it was 0.4 ± 0.1 µM; on ALKBH2 [5] (ALKBH2, ds-m1A), 16 ± 5 µM; on ALKBH2 [5] (ALKBH2, ds-m3C), 7 ± 2 µM. Moreover, the inhibition constant (Ki) on ALKBH2 [5] (ALKBH2, ss-m1A) came to 30 ± 7 µM; at ALKBH2 [5] (ALKBH2, ss-m3C), 40 ± 7 µM; on ALKBH3 [2] (Ki, ALKBH3, ss-m1A) it was 27 ± 4 µM; on ALKBH3 [2] (Ki, ALKBH3, ss-m3C), 37 ± 3 µM. The “potency relative to D- and L-2HG” value at ALKBH2 [5] (from Ki values, all repair reactions) is listed as “about 10 times”.

Take `O=C(O)CCC(=O)C(=O)O` [αKG, α-ketoglutarate]: the Michaelis constant (Km) on ALKBH3 [6] (ALKBH3, ss-m1A) was found to be 2.3 ± 0.1 µM; on ALKBH3 [6] (ALKBH3, ss-m3C), 1.9 ± 0.4 µM; on ALKBH2 [7] (ALKBH2, ds-m1A), 7.3 ± 0.9 µM; on ALKBH2 [7] (ALKBH2, ds-m3C) it was 1.9 ± 0.4 µM; at ALKBH2 [7] (ALKBH2, ss-m1A), 4.1 ± 0.9 µM; on ALKBH2 [7] (ALKBH2, ss-m3C), 1.4 ± 0.2 µM. The Km worked out at 12.7 ± 1.3 µM at AlkB [8] (ds-m1A), 10.8 ± 1.9 µM on AlkB [8] (ds-m3C), 7.1 ± 1.1 µM on AlkB [8] (ss-m1A) and 19.9 ± 1.3 µM on AlkB [8] (ss-m3C). The kcat at ALKBH3 [6] (ALKBH3, ss-m1A) was 0.02 ± 0 s⁻¹; on ALKBH3 [6] (ALKBH3, ss-m3C) it was 0.0283 ± 0 s⁻¹; on ALKBH2 [7] (ALKBH2, ds-m1A), 0.0417 ± 0.0017 s⁻¹; at ALKBH2 [7] (ALKBH2, ds-m3C) it was 0.0433 ± 0.0017 s⁻¹; on ALKBH2 [7] (ALKBH2, ss-m1A) it was 0.0183 ± 0.0017 s⁻¹; on ALKBH2 [7] (ALKBH2, ss-m3C), 0.0283 ± 0.0017 s⁻¹. Further, the turnover number (kcat) is 0.08 ± 0.0033 s⁻¹ on AlkB [8] (ds-m1A), 0.137 ± 0.0067 s⁻¹ on AlkB [8] (ds-m3C), 0.07 ± 0.0033 s⁻¹ on AlkB [8] (ss-m1A) and 0.408 ± 0.012 s⁻¹ at AlkB [8] (ss-m3C).
